Test results from US20240360133A1, “FUSED TRICYCLIC COMPOUND, PREPARATION METHOD THEREFOR AND APPLICATION THEREOF IN MEDICINE” (Jiangsu Hengrui Pharmaceuticals Co., Ltd., priority 2020, published 2024).

molecular target: T1, human TLR7 (Homo sapiens, UniProt Q9NYK1); assay: Inhibitory effect on human TLR7 activation pathway (HEK-Blue hTLR7 SEAP reporter); format: cell-based; conditions: HEK-Blue hTLR7 cells, 1 μM resiquimod, 20 h, SEAP OD620
T1 construct: host or cells: HEK-Blue hTLR7 (HEK293)
T1 sequence (Q9NYK1 27-1049): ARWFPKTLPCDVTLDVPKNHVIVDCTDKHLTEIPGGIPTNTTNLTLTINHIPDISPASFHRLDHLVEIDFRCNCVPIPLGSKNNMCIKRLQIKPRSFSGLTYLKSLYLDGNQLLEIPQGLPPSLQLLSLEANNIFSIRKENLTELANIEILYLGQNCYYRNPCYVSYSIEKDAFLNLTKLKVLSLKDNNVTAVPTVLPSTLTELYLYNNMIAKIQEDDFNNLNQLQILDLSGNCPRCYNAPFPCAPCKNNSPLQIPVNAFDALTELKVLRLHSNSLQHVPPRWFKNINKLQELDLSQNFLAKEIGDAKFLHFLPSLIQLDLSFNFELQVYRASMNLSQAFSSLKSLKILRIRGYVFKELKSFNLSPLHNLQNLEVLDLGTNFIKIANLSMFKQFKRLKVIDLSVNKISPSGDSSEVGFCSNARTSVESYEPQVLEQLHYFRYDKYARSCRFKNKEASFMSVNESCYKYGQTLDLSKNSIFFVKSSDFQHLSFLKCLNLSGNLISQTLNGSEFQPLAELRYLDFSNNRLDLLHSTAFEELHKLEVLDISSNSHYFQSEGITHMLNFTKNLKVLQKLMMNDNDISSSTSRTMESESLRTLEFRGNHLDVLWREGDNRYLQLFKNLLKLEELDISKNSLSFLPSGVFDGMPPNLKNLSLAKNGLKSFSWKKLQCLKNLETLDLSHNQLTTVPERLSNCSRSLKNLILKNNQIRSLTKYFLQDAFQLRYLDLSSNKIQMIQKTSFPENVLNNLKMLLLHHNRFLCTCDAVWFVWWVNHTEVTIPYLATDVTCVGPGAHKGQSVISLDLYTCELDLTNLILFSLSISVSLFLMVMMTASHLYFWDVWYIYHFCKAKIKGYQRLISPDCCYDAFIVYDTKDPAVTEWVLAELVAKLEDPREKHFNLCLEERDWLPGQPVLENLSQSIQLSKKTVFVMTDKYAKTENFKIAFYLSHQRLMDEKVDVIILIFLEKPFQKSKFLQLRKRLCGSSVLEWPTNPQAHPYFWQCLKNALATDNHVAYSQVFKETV
Procedure: • 1. HEK-Blue™ hTLR7 cell (Invivogen) • 2. Resiquimod (R848, Invivogen) • 3. Alkaline phosphatase detection medium (Quanti-Blue Detection, Invivogen) • 4. Blasticidin (Invivogen) • 5. Zeocin (Invivogen) • 6. Normocin (Invivogen) • 7. DMEM/HIGH Glucose (GE Healthcare) • 8. Fetal bovine serum (FBS, Gibco) • 9. Phosphate-buffered saline (Shanghai BasalMedia Technologies Co., Ltd.) • 10. Sterile purified water (made in-house by Shanghai Hengrui) • 11. 15 mL centrifuge tube (Corning) • 12. %-well formulating plate (Corning) • 13. 96-well flat-bottom cell culture plate (Corning) • 14. Constant-temperature cell incubator (Thermo scientific) • 15. Constant-temperature incubator (Shanghai Yiheng Scientific Instruments Co., Ltd.) • 16. PHERAstar FS microplate reader (BMG Labtech)
HEK-Blue™ hTLR7 cells were purchased from Invivogen. These cells are HEK293 cells transfected with the human Toll-like receptor 7 (TLR7) gene and the secreted alkaline phosphatase reporter gene (SEAP). The alkaline phosphatase reporter gene (SEAP) is under the regulation of the IFN—P minimal promoter comprising 5 NF-kB and AP-1 binding sites. Upon activation of TLR7 with an agonist, SEAP secretion is induced via downstream NF-kB and AP-1. After addition of an antagonist compound, the pathway described above is inhibited, and SEAP secretion is reduced. The activity of the compounds for the TLR7 pathway was evaluated by measuring OD620 through the SEAP substrate.
20 mM test compounds dissolved in 100% DMSO were serially diluted with 100% DMSO to 2000, 400, 80, 16, 3.2, 0.64, 0.128, 0.0256 μM, with blank wells containing 100% DMSO. The compounds and 100% DMSO were then 20-fold diluted in DMEM/HIGH glucose media containing 10% inactivated FBS (complete media, the same applies below). Resiquimod was diluted to 10 μM with sterile water. The 10 μM resiquimod dilution in sterile water was added to a 96-well cell culture plate at 20 μL/well. The above compounds diluted in complete media and 100% DMSO were then added at 20 μL/well to wells containing resiquimod, 20 μL of sterile water and 20 μL of 100% DMSO diluted in the complete medium were added to negative control wells.
HEK-Blue™ hTLR7 cells were cultured in a DMEM/HIGH glucose medium containing 10% inactivated FBS, 100 μg/mL Normocin, 10 μg/mL blasticidin, and 100 μg/mL Zeocin. Cells that were in a good state of growth and had grown to 70%-80% were collected. The growth medium was discarded, 5-10 mL of PBS pre-heated at 37° C. was added to wash the cells once, and 2-5 mL of pre-heated PBS was added. The cells were cultured at 37° C. for 1-2 min, dispersed by pipetting, transferred to a 15 mL centrifuge tube, and counted, and the cell density was adjusted to 4.8-10′/mL with the complete medium. After density adjustment, 160 μL of the resulting cell suspension was added to the above 96-well cell culture plate to a final number of cells per well of 76,500/well. The final concentration of resiquimod was 1 μM, and the final concentrations of the test compounds were 10,000, 2000, 400, 80, 16, 3.2, 0.64, and 0.128 nM. The cells were cultured in a 37° C., 5% CO2 incubator for 20 h. Then 20 μL of the supernatant was added to 180 μL of the prepared alkaline phosphatase detection medium and incubated in the dark in a constant-temperature incubator at 37° C. for 120 min. Then the OD620 absorbance readings were taken on a microplate reader. The inhibition rate was calculated using the following formula: […]
Inhibition curves were plotted using Graphpad Prism software according to the concentrations of the compounds and the corresponding inhibition rates, and the concentrations of the compounds at which the inhibition rate reached 50%, i.e., IC50 values, were calculated and are shown in Table 1.

In order of rising IC50:
1. Cc1c(-c2[nH]c3cc4c(nc3c2C(C)C)CNCC4)cn2ncnc2c1C [Example 9, 2-(7,8-Dimethyl-[1,2,4]triazolo[1,5-a]pyridin-6-yl)-3-isopropyl-5,6,7,8-tetrahydro-1H-pyrrolo[3,2-b][1,7]naphthyridine]  4.9 nM
2. Cc1cc(-c2[nH]c3cc4c(nc3c2C(C)C)CN(Cc2ccc(N3CCNCC3)cn2)CC4)cc(C)n1 [Example 5, 2-(2,6-Dimethylpyridin-4-yl)-3-isopropyl-6-((5-(piperazin-1-yl)pyridin-2-yl)methyl)-5,6,7,8-tetrahydro-1H-pyrrolo[3,2-b][1,7]naphthyridine]  5.7 nM
3. Cc1cc(-c2[nH]c3cc4c(nc3c2C(C)C)CN(CCc2ccc(N3CCNCC3)nc2)CC4)cc(C)n1 [Example 4, 2-(2,6-Dimethylpyridin-4-yl)-3-isopropyl-6-(2-(6-(piperazin-4-yl)pyridin-3-yl)ethyl)-5,6,7,8-tetrahydro-1H-pyrrolo[3,2-b][1,7]naphthyridine]  6.8 nM
4. Cc1cc(-c2[nH]c3cc4c(nc3c2C(C)C)CN(CC23CCC(N)(CC2)CC3)CC4)cc(C)n1 [Example 7, 4-((2-(2,6-Dimethylpyridin-4-yl)-3-isopropyl-1,5,7,8-tetrahydro-6H-pyrrolo[3,2-b][1,7]naphthyridin-6-yl)methyl)bicyclo[2.2.2]octyl-1-amine]  7.1 nM
5. Cc1cc(-c2[nH]c3cc4c(nc3c2C(C)C)CNCC4)cc(C)n1 [Example 1, 2-(2,6-Dimethylpyridin-4-yl)-3-isopropyl-5,6,7,8-tetrahydro-1H-pyrrolo[3,2-b][1,7]naphthyridine]  7.7 nM
6. Cc1cc(-c2[nH]c3cc4c(nc3c2C(C)C)CN(CC(N)=O)CC4)cc(C)n1 [Example 8, 2-(2-(2,6-Dimethylpyridin-4-yl)-3-isopropyl-1,5,7,8-tetrahydro-6H-pyrrolo[3,2-b][1,7]naphthyridin-6-yl)acetamide]  18.2 nM
7. Cc1c(-c2[nH]c3cc4c(nc3c2C(C)C)CN(CC(N)=O)CC4)cn2ncnc2c1C [Example 10, 2-(2-(7,8-Dimethyl-[1,2,4]triazolo[1,5-a]pyridin-6-yl)-3-isopropyl-1,5,7,8-tetrahydro-6H-pyrrolo[3,2-b][1,7]naphthyridin-6-yl)acetamide]  21.5 nM
8. Cc1cc(-c2[nH]c3cc4c(nc3c2C(C)C)CN(C(C)C)CC4)cc(C)n1 [Example 2, 2-(2,6-Dimethylpyridin-4-yl)-3,6-diisopropyl-5,6,7,8-tetrahydro-1H-pyrrolo[3,2-b][1,7]naphthyridine]  29.9 nM
